Measured values: patent publication US10111880B2, “Compounds for the treatment of diabetes and disease complications arising from same” (BEN-GURION UNIVERSITY OF THE NEGEV RESEARCH AND DEVELOPMENT …, priority 2013, dated 2018)

System: STZ-induced diabetic ICR mice
Test: Blood glucose in STZ-induced diabetic ICR mice, long-term AGS treatment (5 months) with or without insulin
Format: in vivo, mouse
Parameters: Blood Glucose At 101 day / Blood Glucose At 111 day: unit: mg/dL
Conditions: for % reduction in blood glucose level / Blood glucose level Average: after 12 hours fast, day 142; for Blood glucose level Average: in mg/dL (unit assumed)
Procedure: [0182]7 week-old female ICR mice were intra-peritoneally injected with STZ (40 mg\Kg) for 5 consecutive days. Non-diabetic mice received citrate buffer (pH 4.3, cold), which served as the vehicle controls for this study. AGS-500 (6 mg\Kg) was then administered subcutaneously every 2 days, for 5 months, on the first day after STZ administration. A further control group, where DMSO was administered in accordance with this regimen, was included. Mice were divided into the following 6 groups (10 mice per group except STZ only-5 mice): • STZ only • STZ+DMSO • Citrate+DMSO 1% every day • STZ+AGS-499 (6 mg/kg) injected every day S.C • STZ+AGS-500 (6 mg/kg) injected every day S.C • STZ+AGS-500 (6 mg/kg) injected every other day S.C Mice were weighed and blood glucose levels were measured using a free style glucometer. Food consumption was also measured 24 hours prior to STZ injection. The concentration of STZ to be injected was calculated. STZ at 40 mg/kg was injected ip for 5 consecutive days. AGS treatment was administered one day following the last STZ injection. The establishment of diabetes was validated by the assessment of blood glucose levels performed every 3 days (at the beginning) and once a week after 59 days from the initiation of the experiment. Blood glucose levels over 200 mg/dl (measured 3 consecutive times) indicated a diabetic state. At 80 days from the initiation of the experiments each group was divided to 2 subgroups which received either insulin (4 units/kg) or acetic acid (0.015%) both in HEPES buffer (pH 7.45) injected every 48 hours. Mice were sacrificed after 5 months from the initiation of the experiments. Blood glucose levels were monitored every 3 days. Ten weeks after the beginning of this study, each group was divided into 2 sub-groups, one of each also received insulin (4 U\Kg) every 2 days, except for the non-diabetic sub-groups. Acetic acid (1%) served as the vehicle control.

## CC(c1cc(Br)c(O)c(Br)c1)(c1cc(Br)c(O)c(Br)c1)c1cc(Br)c(O)c(Br)c1 [AGS-500, 1,1,1-tris (4-hydroxy-3,5-dibromo-phenyl)-ethane]
AGS 500 every 48 hrs, without insulin
  blood glucose levels with time: best effect in reducing blood glucose levels with time
FIG. 2F
  circulating glucose levels, AGS-500 alone versus combined AGS-500 and insulin: greatest therapeutic effect
6 mg/kg s.c. daily
  % reduction in blood glucose level: 20%
  Blood glucose level Average: 317.4
6 mg/kg s.c. every 48 hrs
  % reduction in blood glucose level: 32%
  Blood glucose level Average: 270
No insulin, daily
  % reduction In blood Glucose 101 day: 15%
  Blood Glucose At 101 day: 600
  Blood Glucose At 111 day: 450
  reduction In blood Glucose 111 day: 25%
No insulin, every 48 hrs
  % reduction In blood Glucose 101 day: 43%
  Blood Glucose At 101 day: 400
  Blood Glucose At 111 day: 390
  reduction In blood Glucose 111 day: 35%
With insulin (4 units/kg every 48 hours), AGS daily
  Blood Glucose At 101 day: 460
With insulin, AGS daily
  % reduction In blood Glucose 101 day: 34%
  Blood Glucose At 111 day: 400
  reduction In blood Glucose 111 day: 34%
With insulin, AGS every 48 hrs
  % reduction In blood Glucose 101 day: 32%
  Blood Glucose At 101 day: 480
  Blood Glucose At 111 day: 400
  reduction In blood Glucose 111 day: 34%
